In US20260306460A1, “COMPOSITION FOR REMOVING AND INHIBITING SENESCENT CELLS, AND USES THEREOF” (LIFECEUTIX CO., LTD., priority 2023, published 2026):

What was measured:
[1] = system: transplanted kidney of aged mice; assay: Efficiency of kidney transplantation from aged mice into young mice; assay type: in vivo, mouse
Procedure: Furthermore, the efficiency of kidney transplantation following the removal of senescent cells from the kidney was evaluated. Kidneys extracted from aged mice of Example 21-1, untreated and treated with LX-403, were transplanted into 3-month-old young mice. Three days later, the efficiency of kidney transplantation was assessed through analysis of markers of aging and kidney damage. […] This improvement in transplantation efficiency was also observed when kidneys extracted from aged mice were transplanted after removing senescent cells under ex vivo conditions, such as by culturing them in an LX-403-containing medium.

[2] = system: naturally aged mice; assay: Anti-aging evaluation in naturally aged mice, Example 31, Table 55; assay type: in vivo, mouse; conditions: for Femur Ctsk mRNA / Kidney Agtr1a mRNA / Liver IL6 mRNA / Liver MMP3 mRNA / Liver p16 mRNA / Open Field Test Time in Center: untreated = 100%; for Heart Sur2a mRNA / Joint Col2a1 mRNA / Skin Col1a1 mRNA / Skin SDF1 mRNA: untreated = 1.0; for Muscle Mass: untreated 0.64 g; for Fat Mass: untreated 0.82 g; for Cataract incidence: untreated 83%;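 for all read-outs here: Vehicle-dosed control mice received solution alone at matching volume, values compare test-compound-treated aged mice against that control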
[3] = system: proliferating foreskin cells; assay: Survival of proliferating human cells treated with supernatant (secreted fluid) from death-induced cells, Example 13; assay type: cell-based; conditions: 3 days; for viability at 30 µM: Homo sapiens, 72 h
Procedure: After 3 days, cell viability was measured using CellTiter-Glo Luminescent Cell Viability Assay (Promega) or light microscopy.
After treating cells with the test compound at a high concentration that induces the death of most cells in both non-senescence-induced and senescence-induced cells, the cells were washed three times with PBS to remove the test compound, and replaced with fresh medium and cultured for an additional 3 hours at the time when the compound has entered into the cell but has not yet induced cell death (approximately 1 to 3 hours after compound treatment). During this additional culture, by checking with an optical microscope, etc., the medium supernatants containing secreted fluid from normally proliferating and senescent cells in which cell death was induced were obtained. The obtained medium supernatant was replaced with the medium of normally proliferating and senescent cells, respectively, and cell survival rate was measured after 3 days.

[4] = system: obesity-induced aged C57BL6J mice; assay: Open field test in obese aged mice given senescent cells killed by test compound, Example 16; assay type: in vivo, mouse; conditions: senescent preadipocytes killed by test compound sc; no administration = 100%
[5] = system: HMGN1 secreted from senescent human cells; assay: HMGN1 secretion (ELISA) from doxorubicin-induced senescent human cells, Example 11; assay type: cell-based; conditions: senescent untreated = 100%; 30 μM; 90 μM for LX-305, 1302, 1603, 2005, 2702, 2901, 3106; 270 μM for LX-1103, 2007
[6] = system: senescent A549 cells; assay: Viability of senescent A549 cancer cells (CellTiter-Glo), Example 12; assay type: cell-based, human; conditions: 0 μM = 100
Procedure: Cells were treated with doxorubicin or control (DMSO) and cultured.
Cancer cells in which aging was induced by treatment with doxorubicin were treated with the test compound at designated concentrations and measured using the CellTiter-Glo Luminescent Cell Viability Assay (Promega).

[7] = system: obesity-induced aged C57BL6J mice; assay: Fatty liver (Oil Red O, AST, ALT) in obesity-aged mice, Example 23-5, Table 45; assay type: in vivo, mouse; conditions: daily for 21 days, untreated 100%; for ALT / AST: serum; for Oil Red O: staining area, liver
Procedure: After acclimation to the experimental environment for one week, the mice were randomly assigned to experimental and control groups. […] The control group received only the solution in the same volume. After the end of drug administration, the methods described in each example below were performed.

[8] = system: SHR/Izm rats; assay: Geriatric hypertension in SHR/Izm rats (p16 mRNA, blood pressure), Example 30, Table 54; assay type: in vivo, rat; conditions: for Blood pressure: tail cuff, untreated 195 (±13.3); for p16 mRNA: thoracic aorta, untreated 100%
Procedure: Ten-week-old male SHR/Izm rats (SLC), a model of essential hypertension, were acclimated to the experimental environment for one week. […] The control group received only the solution in the same volume. After drug administration, the blood pressure of the experimental animals was measured, and RNA was extracted from the thoracic aorta in the same manner as in Example 7-2 of WO2023-085787 A1. The synthesized cDNA was used for qRT-PCR. Blood pressure measurements were performed three times using a blood pressure monitor (IITC) after the animals were allowed to rest for approximately 10 minutes in a measuring holder with a cuff attached to the caudal vein. […] The mRNA levels after aging were calculated as 100% and compared with the mRNA levels of p16 after treatment with the test compound.

[9] = system: obesity-induced aged C57BL6J mice; assay: Serum IL6 and activin A (ELISA) in obesity-aged mice, Example 23-3, Table 43; assay type: in vivo, mouse; conditions: 360 mg/kg oral daily for 21 days
Procedure: 15-week-old male C57BL6J mice (The Jackson Laboratory) were induced to obesity by a high-fat diet using the same method as in Example 9-1 WO2023-085787 A1. After acclimation to the experimental environment for one week, the mice were randomly assigned to experimental and control groups. […] LX-3002 was mixed in distilled water with 4% DMSO, 30% PEG300, and 5% Tween80 and administered orally at a concentration of 10 mg/kg daily for 21 days. LX-5701 was mixed in PBS and administered orally at a concentration of 360 mg/kg daily for 21 days. LX-6807 was mixed in saline and administered intraperitoneally at a concentration of 1 mg/kg daily for 21 days. The control group received only the solution in the same volume. After the end of drug administration, the methods described in each example below were performed.
The levels of IL6 and activin A, senescence-associated secretory factors (SASP), were measured in serum collected from mice using the same method as in Example 7-5 of WO2023-085787 A1 using an enzyme-linked immunosorbent assay (ELISA Kit, R&D Systems).

Row | Molecule | Femur Ctsk mRNA [2] [%] | Heart Sur2a mRNA [2] [fold] | Joint Col2a1 mRNA [2] [fold] | Kidney Agtr1a mRNA [2] [%] | Liver IL6 mRNA [2] [%] | Liver MMP3 mRNA [2] [%] | Liver p16 mRNA [2] [%] | Open Field Test Time in Center [2] [%] | Skin Col1a1 mRNA [2] [Fold] | Skin SDF1 mRNA [2] [fold] | Muscle Mass [2] [g] | Fat Mass [2] [g] | Cataract incidence [2] [%] | ALT [7] | AST [7] | Oil Red O [7] | Blood pressure [8] | p16 mRNA [8] | other results
1 | O=C(C(C[N+](=O)[O-])=NO)N1CCN(C(c2ccc(Cl)cc2)c2ccc(Cl)cc2)CC1 [LX-403] | 22 | 2.9 | 3.4 | 64 | 53 | 45 | 34 | 237 | 2.8 | 2.7 | 0.76 | 0.98 | 64 | – | – | – | – | – | p16 of transplanted kidney, serum urea and creatinine ([1]; 3 days after transplantation): reduced; efficiency of kidney transplantation ([1]; mouse, in vivo): improves the efficiency of kidney transplantation
2 | COC(=O)c1ccc([C@H]2c3[nH]c4ccccc4c3C[C@H](C(=O)OC)N2C(=O)CCl)cc1 [LX-405] | – | – | – | – | – | – | – | – | – | – | – | – | – | – | – | – | – | – | viability at 30 µM ([3]; supernatant from death-induced proliferating cells): 104%; viability at 30 µM ([3]; supernatant from death-induced senescent cells): 100%; Survival ([3]; supernatant from No Cells): 99.4 (±2.4) %
3 | S=C(N/N=C1\CCCc2cccnc21)N1CCN(c2ccccn2)CC1 [LX-801] | 70 | 2.8 | 2.7 | 55 | 64 | 35 | 53 | 222 | 2.1 | 2.1 | 0.77 | 1.09 | 57 | – | – | – | – | – | Open Field Test Time in Center [4]: 216.8 (±12.8) %; HMGN1 [5]: 265%; Survival ([6]; 1.1 μM): 78.1%; Survival ([6]; 10 μM): 12.7%; Survival ([6]; […]): 58.5%
4 | C[C@@H]1CC[C@@]23C[C@H](O)C(=O)[C@@]2(O)[C@]1(C)[C@H](OC(=O)CCl)C[C@@H](C1=CCn2c(=O)n(-c4ccccc4)c(=O)n2C1)[C@@H]3C [LX-1801, (2S,3aS,4S,5R,7R,8S,8aS,11R)-7-(1,3-Dioxo-2-phenyl-2,3,5,8-tetrahydro-1H-[1,2,4]triazolo[1,2-a]pyridazin-6-yl)-2,3a-dihydroxy-4,8,11-trimethyl-3-oxooctahydro-1H-4,8a-propanoazulen-5-yl 2-Chloroacetate] | 69 | 2.7 | 2.6 | 48 | 53 | 49 | 42 | 287 | 1.9 | 2.2 | 0.78 | 1.16 | 35 | – | – | – | – | – | –
5 | CCCC\C=C/C=C/C=C\CCCCCCCC(=O)O [LX-2707, Punicic acid] | – | – | – | – | – | – | – | – | – | – | – | – | – | 64 (±3.1) % | 75 (±2.1) % | 67 (±1.7) % | 160.1 (±23.1) mmHg | 64 (±8.5) % | –
6 | COC(=O)[C@H]1Cc2c([nH]c3ccccc23)[C@H](c2ccc(S(C)(=O)=O)cc2)N1C(=O)CCl [LX-5401, methyl (1S,3R)-2-(2-chloroacetyl)-1-(4-(methylsulfonyl)phenyl)-2,3,4,9-tetrahydro-1H-pyrido[3,4-b]indole-3-carboxylate] | 42 | 1.7 | 1.6 | 73 | 55 | 81 | 73 | 179 | – | – | 0.69 | 0.89 | 77 | – | – | – | – | – | –
7 | C#CC(=O)N1[C@@H](CCCC)Cc2cc(OC)ccc2[C@@H]1c1ccc(NC23CC4CC(CC(C4)C2)C3)cc1 [LX-5411] | 71 | 2.5 | 2.0 | 68 | 63 | 58 | 65 | 214 | 1.6 | 1.9 | 0.74 | 1.21 | 52 | – | – | – | – | – | –
8 | O=C1C2CCN(CC2)C1CNC(=O)C(F)(F)F (centres unmarked) [LX-5701] | – | – | – | – | – | – | – | – | – | – | – | – | – | 64 (±7.9) % | 69 (±8.8) % | 55 (±17.2) % | 159.8 (±15.5) mmHg | 73 (±5.2) % | Activin A ([9]; untreated 100 (±7.5)): 61.7 (±14.0) %; IL6 ([9]; untreated 100 (±11.6)): 53.9 (±15.4) %
9 | Cc1cccc([C@H](C)c2cnc[nH]2)c1C [LX-6807, Dexmedetomidine] | – | – | – | – | – | – | – | – | – | – | – | – | – | 70 (±6.4) % | 66 (±4.4) % | 53 (±3.9) % | 157.8 (±19.3) mmHg | 66 (±5.0) % | –
10 | Tocofersolan [LX-3001] | – | – | – | – | – | – | – | – | – | – | – | – | – | 71 (±1.3) % | – | 83 (±4.0) % | 172.9 (±14.6) mmHg | 71 (±3.6) % | HMGN1 [5]: 301%; Survival ([6]; 1.1 μM): 101.6%; Survival ([6]; 10 μM): 22.6%; Survival ([6]; […]): 95.6%
